Data set [1] has as its target T1, PEPT1 (Homo sapiens, UniProt P46059).
T1 sequence (P46059 1-708): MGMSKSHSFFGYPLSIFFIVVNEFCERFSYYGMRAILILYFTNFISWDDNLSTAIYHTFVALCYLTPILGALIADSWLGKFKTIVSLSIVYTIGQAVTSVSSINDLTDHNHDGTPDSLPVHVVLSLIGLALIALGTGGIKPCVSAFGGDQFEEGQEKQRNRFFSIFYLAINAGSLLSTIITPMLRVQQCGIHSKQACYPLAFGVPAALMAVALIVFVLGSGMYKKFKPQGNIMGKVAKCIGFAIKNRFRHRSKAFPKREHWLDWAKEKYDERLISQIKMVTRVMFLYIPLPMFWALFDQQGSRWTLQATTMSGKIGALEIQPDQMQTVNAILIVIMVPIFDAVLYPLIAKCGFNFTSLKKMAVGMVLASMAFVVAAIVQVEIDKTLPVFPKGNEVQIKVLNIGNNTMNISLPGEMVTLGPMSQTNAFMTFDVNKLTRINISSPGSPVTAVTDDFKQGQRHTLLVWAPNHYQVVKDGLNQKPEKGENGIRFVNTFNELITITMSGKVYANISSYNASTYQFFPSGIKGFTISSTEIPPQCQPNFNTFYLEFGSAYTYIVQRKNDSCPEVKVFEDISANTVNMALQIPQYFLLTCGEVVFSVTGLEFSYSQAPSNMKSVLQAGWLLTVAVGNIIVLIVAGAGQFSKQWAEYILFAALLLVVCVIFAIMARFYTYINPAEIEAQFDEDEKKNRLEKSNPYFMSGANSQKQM
As to the kind of experiment: Inhibition of PEPT1-mediated [14C]LY2140023 uptake in transfected HeLa cells. To be noted: 10 μM [14C]LY2140023.

Data set [2] concerns the target T1, PEPT1. The arrangement: expressed in transfected cells; method as in Han, 1999. As to conditions: CHO cells transfected with PEPT1, ref Han, 1999, cited from earlier work.
Data set [3] concerns the target T1, PEPT1. As to the kind of experiment: System validation: proton- and concentration-dependent uptake of [14C]Gly-Sar in PEPT1 transfected HeLa cells. It is filed as in vitro ADME. The arrangement: expressed in transfected cells; host or cells: HeLa cells (ATCC), transiently transfected with Fugene 6, pcDNA3.1 vector. Here is the method:
(§1) Assessment of both the proton-dependent uptake ([Liang et al., 1995]) and the concentration-dependent uptake of [^14C]Gly-Sar by the transiently transfected HeLa cells was used to validate the in vitro system. For proton-dependent uptake, [^14C]Gly-Sar was measured 24 hour post transfection at either pH 6.0 or 7.5. PEPT1- and empty vector-transfected cells were incubated with [^14C]Gly-Sar (50 µM) for 5 minutes at room temperature. Cells transfected with empty pcDNA3.1 vector were used to measure the passive diffusion of [^14C]Gly-Sar. For concentration-dependent uptake, transfected cells were incubated with [^14C]Gly-Sar at concentrations from 50 to 5000 µM for 3 minutes at room temperature. For both proton- and concentration-dependent experiments, cells were washed three times with ice-cold phosphate-buffered saline after incubation with Gly-Sar to stop uptake and then lysed with 0.3 ml 1% triton X-100 in phosphate-buffered saline for 30 minutes at room temperature. Scintillation counting was conducted to determine radioactivity, and protein levels were determined by the bicinchoninic acid method ([Smith et al., 1985]).

Substrate in data set [4]: CSCC[C@H](N)C(=O)N[C@@]1(C(=O)O)CS(=O)(=O)[C@H]2[C@H](C(=O)O)[C@H]21
As to the kind of experiment: Concentration-dependent uptake of [14C]LY2140023 in PEPT1 transfected HeLa cells (kinetic parameters). The class given is in vitro ADME, human. Here is the method:
The concentration dependent uptake of [^14C]LY2140023, ranging from 5 up to 149 μM, was determined in PEPT1 transfected HeLa cells with 2- to 3-minute incubation at room temperature. The mean passive diffusion of prodrug at each concentration was obtained in parallel experiments in HeLa cells transfected with pcDNA3.1 empty vector and subtracted from the uptake mediated by PEPT1. The corrected data were fitted by WinNonlin Professional, version 5.0.1 or 5.3 (Certara, L.P., St. Louis, MO). The kinetic parameters of the prodrug mediated by PEPT1 were estimated by utilizing the following equation: [drawing 1] where S is the substrate concentration (μM), Vmax is the maximum uptake rate (pmol/min/mg), and Km is the concentration where uptake reaches a half of Vmax (μM).

Substrate in data set [5]: CN(CC(=O)O)C(=O)CN
In words: System validation: proton- and concentration-dependent uptake of [14C]Gly-Sar in PEPT1 transfected HeLa cells. As to conditions: other: 50 μM to 5 mM, pH 6.0. The class given is in vitro ADME, human. Here is the method:
as §1

[6] abbreviates: other: experiment 1, 5 to 146 μM LY2140023, PEPT1 transfected HeLa cells, parameter ± S.E.M.
Setting [7] is: other: experiment 2, 6.4 to 149 μM LY2140023, PEPT1 transfected HeLa cells, parameter ± S.E.M.

Non-standard residues stand in square brackets, D forms with d. Residues, ends and D or L forms follow the SMILES beside them. Sar = CNCC(=O)O

As to `CN(CC(=O)O)C(=O)CN` [Gly-Sar, glycylsarcosine] (H-Gly-[Sar]-OH), the IC50 against PEPT1 [1] (IC50 against LY2140023, first of two separate experiments) amounted to 1290 ± 260 µM; on PEPT1 [1] (IC50 against LY2140023, second of two separate experiments), 690 ± 170 µM; against PEPT1 [1] (Mean IC50 against LY2140023, mean of two separate experiments) it was 990 µM. The “reported Vmax” value on PEPT1 [2] is recorded as 3517 pmol/min/mg. Further, the Km on PEPT1 [2] (read-out: reported Km) was 500 µM. The “transport at pH 6.0 relative to pH 7.5” value at PEPT1 [3] ([14C]Gly-Sar 50 µM, 5 minutes, PEPT1 transfected HeLa cells) is listed as “approximately five”. Moreover, the passive diffusion rate on PEPT1 [3] (control cells (empty pcDNA3.1 vector)) was determined as 0.0972 µL/min/mg.

B1: PEPT1 (Homo sapiens) (protein)
chain: MGMSKSHSFFGYPLSIFFIVVNEFCERFSYYGMRAILILYFTNFISWDDNLSTAIYHTFVALCYLTPILGALIADSWLGKFKTIVSLSIVYTIGQAVTSVSSINDLTDHNHDGTPDSLPVHVVLSLIGLALIALGTGGIKPCVSAFGGDQFEEGQEKQRNRFFSIFYLAINAGSLLSTIITPMLRVQQCGIHSKQACYPLAFGVPAALMAVALIVFVLGSGMYKKFKPQGNIMGKVAKCIGFAIKNRFRHRSKAFPKREHWLDWAKEKYDERLISQIKMVTRVMFLYIPLPMFWALFDQQGSRWTLQATTMSGKIGALEIQPDQMQTVNAILIVIMVPIFDAVLYPLIAKCGFNFTSLKKMAVGMVLASMAFVVAAIVQVEIDKTLPVFPKGNEVQIKVLNIGNNTMNISLPGEMVTLGPMSQTNAFMTFDVNKLTRINISSPGSPVTAVTDDFKQGQRHTLLVWAPNHYQVVKDGLNQKPEKGENGIRFVNTFNELITITMSGKVYANISSYNASTYQFFPSGIKGFTISSTEIPPQCQPNFNTFYLEFGSAYTYIVQRKNDSCPEVKVFEDISANTVNMALQIPQYFLLTCGEVVFSVTGLEFSYSQAPSNMKSVLQAGWLLTVAVGNIIVLIVAGAGQFSKQWAEYILFAALLLVVCVIFAIMARFYTYINPAEIEAQFDEDEKKNRLEKSNPYFMSGANSQKQM
notes: expressed in transfected cells; host or cells: HeLa cells (ATCC), transiently transfected with Fugene 6, pcDNA3.1 vector
Turning to B1, the Km is 30 µM in data set [4] (other: approximate value over experiments), 28.66 ± 5.01 µM in data set [4] (setting [6]), 29.98 ± 5.29 µM in data set [4] (setting [7]) and 427.9 µM in data set [5]. The values for the Vmax in data set [4] (setting [6]), in data set [4] (setting [7]) and in data set [5] were 0.000238 µmol/min/mg, 0.000573 µmol/min/mg and 3975.3 pmol/min/mg, respectively.

Values taken from paper PMC5267515, “In Vitro and Clinical Evaluations of the Drug-Drug Interaction Potential of a Metabotropic Glutamate 2/3 Receptor Agonist Prodrug with Intestinal Peptide Transporter 1” (Drug Metabolism and Disposition, 2017).
